Assay results as given in patent EP4711369A1, “1H-[1,2,3]TRIAZOLO[4,5-H]QUINAZOLINE COMPOUNDS AS PROTEIN KINASE INHIBITORS” (Chengdu Cynogen Bio-Pharmaceutical Technology Co., Ltd., priority 2023, dated 2024).

Experiments:
[1] = molecular target: CDK6/cyclin D3 (Homo sapiens, UniProt Q00534); test: Assay of kinase activity (ADP-Glo); format: biochemical; details: kinase inhibitory activity
Procedure, shortened: (§1)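 Human CDK6/cyclin D3 and CDK9/cyclin T1 preincubated 10 min at 25 °C with compound in 50 mM Hepes, 10 mM MgCl2, 0.01% Brij35, 2 mM DTT, then reacted 60 min at 25 °C with substrate and ATP. ADP formed measured by ADP-Glo luminescence; IC50 from nonlinear concentration-response fitting.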

[2] = molecular target: CDK9/cyclin T1 (Homo sapiens, UniProt P50750); test: Assay of kinase activity (ADP-Glo); format: biochemical; details: kinase inhibitory activity
CDK9/cyclin T1, sequence (P50750 whole entry, species assumed): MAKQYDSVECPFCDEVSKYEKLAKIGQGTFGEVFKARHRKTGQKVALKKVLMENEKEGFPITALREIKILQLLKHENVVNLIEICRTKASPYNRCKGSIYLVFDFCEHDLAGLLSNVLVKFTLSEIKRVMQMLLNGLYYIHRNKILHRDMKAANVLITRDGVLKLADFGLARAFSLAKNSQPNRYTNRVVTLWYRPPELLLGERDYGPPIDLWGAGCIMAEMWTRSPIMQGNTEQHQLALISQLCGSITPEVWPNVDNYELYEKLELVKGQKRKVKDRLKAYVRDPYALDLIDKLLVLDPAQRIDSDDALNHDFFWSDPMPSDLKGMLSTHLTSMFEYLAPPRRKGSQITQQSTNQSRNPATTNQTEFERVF
CDK9/cyclin T1, sequence (O60563 whole entry partner, species assumed): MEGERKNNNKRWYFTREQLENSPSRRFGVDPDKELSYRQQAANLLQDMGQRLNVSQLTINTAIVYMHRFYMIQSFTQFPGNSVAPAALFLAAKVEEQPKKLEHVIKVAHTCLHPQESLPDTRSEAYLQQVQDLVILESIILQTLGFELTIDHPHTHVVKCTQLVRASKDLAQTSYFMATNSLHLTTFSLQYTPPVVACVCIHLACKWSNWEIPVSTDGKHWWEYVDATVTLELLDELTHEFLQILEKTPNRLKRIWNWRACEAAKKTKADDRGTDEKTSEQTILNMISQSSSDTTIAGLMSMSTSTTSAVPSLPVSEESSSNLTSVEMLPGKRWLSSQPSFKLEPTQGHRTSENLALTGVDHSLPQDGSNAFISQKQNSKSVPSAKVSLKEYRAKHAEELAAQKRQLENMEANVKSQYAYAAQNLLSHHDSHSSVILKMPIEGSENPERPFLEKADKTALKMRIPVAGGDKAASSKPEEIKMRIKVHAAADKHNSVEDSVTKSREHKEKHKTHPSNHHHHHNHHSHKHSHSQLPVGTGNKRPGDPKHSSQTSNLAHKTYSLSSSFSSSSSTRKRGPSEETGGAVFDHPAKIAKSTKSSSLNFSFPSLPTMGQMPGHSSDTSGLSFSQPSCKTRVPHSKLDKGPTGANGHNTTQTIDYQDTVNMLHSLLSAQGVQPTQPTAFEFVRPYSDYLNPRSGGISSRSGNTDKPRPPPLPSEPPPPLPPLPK
Procedure, shortened: as §1

[3] = test system: Human ovarian cancer OVCAR-3 cells; test: OVCAR-3 tumor model; format: in vivo; details: female NOD-SCID mice, p.o. 5, 10 and 15 mg/kg twice daily, 22 days, Fig. 3
Method: Human ovarian cancer OVCAR-3 cells were cultured in RPMI 1640 medium containing 20% FBS at 37 °C and 5% CO2 in an incubator. Matrigel was mixed with serum-free RPMI 1640 medium at a ratio of 1:1, and then the mixture was used to resuspend the OVCAR-3 cancer cells at 2 × 10^7 cells/0.2 ml. Then, the cells were inoculated subcutaneously into the right rib area of female NOD-SCID mice. When the volume of tumors reached approximately 100-150 mm^3, the mice were randomly divided into groups for treatment, with six animals per group. The compound of example I-10 was prepared in a 20% aqueous solution of hydroxypropyl-gamma-cyclodextrin containing an equivalent amount of hydrochloric acid, and administered by oral gavage (p.o.) at dosages of 5, 10, and 15 (mg/kg) twice daily, 8 hours apart, for a total of 22 days. The PF06873600 treatment group was used as a positive control, and the untreated group was given solvent by oral gavage. The tumor volume was measured twice a week using a vernier caliper by measuring the long and short diameters of a tumor. The formula for calculating a tumor volume was: volume (mm^3) = (long diameter (mm) × short diameter (mm) × short diameter (mm)/2. The mice were weighed daily.
The therapeutic effect of a drug was evaluated using the tumor growth inhibition (TGI%).

CDK6/cyclin D3, sequence (Q00534 whole entry, species assumed): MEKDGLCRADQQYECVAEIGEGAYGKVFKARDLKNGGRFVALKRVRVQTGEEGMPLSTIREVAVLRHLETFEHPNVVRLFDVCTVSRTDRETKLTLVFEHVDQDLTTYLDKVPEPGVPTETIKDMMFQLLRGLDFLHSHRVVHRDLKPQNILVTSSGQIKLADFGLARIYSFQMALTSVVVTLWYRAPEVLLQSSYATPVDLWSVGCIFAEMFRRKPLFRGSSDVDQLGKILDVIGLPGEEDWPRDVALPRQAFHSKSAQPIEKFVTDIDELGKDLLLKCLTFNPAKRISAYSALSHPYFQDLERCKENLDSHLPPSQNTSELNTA
CDK6/cyclin D3, sequence (P30281 whole entry partner, species assumed): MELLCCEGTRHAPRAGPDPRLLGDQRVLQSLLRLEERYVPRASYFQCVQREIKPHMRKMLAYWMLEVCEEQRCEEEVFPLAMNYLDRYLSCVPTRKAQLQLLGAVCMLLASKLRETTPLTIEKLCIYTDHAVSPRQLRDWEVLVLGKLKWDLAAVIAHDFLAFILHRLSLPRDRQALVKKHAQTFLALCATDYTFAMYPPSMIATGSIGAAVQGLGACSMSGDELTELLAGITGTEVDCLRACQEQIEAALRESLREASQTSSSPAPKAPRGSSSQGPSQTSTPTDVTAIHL

IC50 [1]: 4 nM | IC50 [2]: 2 nM
SMILES: CC(C)n1nnc2ccc3cnc(Nc4ccc(C(=O)N5CC[C@H](N(C)C)C5)cc4)nc3c21 [Example I-10, (S)-(3-(Dimethylamino)pyrrolidin-1-yl)(4-((1-isopropyl-1H-[1,2,3]triazolo[4,5-H]quinazolin-8-yl)amino)phenyl)metha none]
growth inhibitory effect on the OVCAR-3 tumor model (TGI%) [3]: dose-dependent relationship
